The text below walks through data of ChEMBL document CHEMBL5678818, “Discovery of potent SOS1 inhibitors that block RAS activation via disruption of the RAS-SOS1 interaction” (Proc Natl Acad Sci U S A, 2019).

The target of test [1] is ALK tyrosine kinase receptor (Homo sapiens) (UniProt Q9UM73). Description: Inhibition of ALK (unknown origin) assessed as residual activity at 1000 nM by KINOMEscan analysis relative to control.
The target of test [2] is Casein kinase I isoform epsilon (Homo sapiens) (UniProt P49674). The test is described as follows: Inhibition of CSNK1E (unknown origin) assessed as residual activity at 1000 nM by KINOMEscan analysis relative to control.
Sequence of Casein kinase I isoform epsilon (Homo sapiens) (P49674 whole entry, looked up, canonical isoform): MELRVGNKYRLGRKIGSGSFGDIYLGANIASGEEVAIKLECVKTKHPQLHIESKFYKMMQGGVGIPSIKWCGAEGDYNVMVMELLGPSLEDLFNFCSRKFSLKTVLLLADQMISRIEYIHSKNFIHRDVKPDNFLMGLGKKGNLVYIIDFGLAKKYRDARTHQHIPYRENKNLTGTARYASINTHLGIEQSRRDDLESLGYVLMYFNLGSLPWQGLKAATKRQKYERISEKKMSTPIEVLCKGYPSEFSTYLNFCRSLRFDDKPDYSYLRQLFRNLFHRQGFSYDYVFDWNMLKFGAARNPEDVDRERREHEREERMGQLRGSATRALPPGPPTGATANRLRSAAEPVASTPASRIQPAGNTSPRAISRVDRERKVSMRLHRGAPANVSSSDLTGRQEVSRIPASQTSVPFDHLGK
Test [3] deals with T1, Hormonally up-regulated neu tumor-associated kinase (Homo sapiens) (UniProt P57058).
T1 sequence (whole entry): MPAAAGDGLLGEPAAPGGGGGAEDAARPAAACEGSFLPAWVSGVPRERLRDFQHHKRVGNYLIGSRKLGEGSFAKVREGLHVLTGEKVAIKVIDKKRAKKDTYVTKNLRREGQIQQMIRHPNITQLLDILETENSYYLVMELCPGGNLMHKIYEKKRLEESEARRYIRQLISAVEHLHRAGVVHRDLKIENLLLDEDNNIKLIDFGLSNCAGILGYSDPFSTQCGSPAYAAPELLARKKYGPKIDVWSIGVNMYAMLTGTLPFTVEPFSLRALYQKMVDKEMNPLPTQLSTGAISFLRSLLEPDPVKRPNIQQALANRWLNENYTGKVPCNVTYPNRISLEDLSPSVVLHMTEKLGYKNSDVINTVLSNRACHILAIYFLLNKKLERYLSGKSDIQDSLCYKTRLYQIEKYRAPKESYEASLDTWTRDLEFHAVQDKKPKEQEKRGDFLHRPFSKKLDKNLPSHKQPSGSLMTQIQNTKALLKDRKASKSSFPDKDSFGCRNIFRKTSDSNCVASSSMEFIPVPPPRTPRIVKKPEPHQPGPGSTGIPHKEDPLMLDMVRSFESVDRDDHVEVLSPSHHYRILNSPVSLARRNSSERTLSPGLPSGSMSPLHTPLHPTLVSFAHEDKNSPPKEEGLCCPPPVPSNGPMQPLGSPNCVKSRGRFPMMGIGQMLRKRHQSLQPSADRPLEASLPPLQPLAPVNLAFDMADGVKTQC
The test is described as follows: Inhibition of HUNK (unknown origin) assessed as residual activity at 1000 nM by KINOMEscan analysis relative to control.

Test [4] concerns the target T2, Tyrosine-protein kinase ITK/TSK (Homo sapiens) (UniProt Q08881).
T2 sequence (whole entry): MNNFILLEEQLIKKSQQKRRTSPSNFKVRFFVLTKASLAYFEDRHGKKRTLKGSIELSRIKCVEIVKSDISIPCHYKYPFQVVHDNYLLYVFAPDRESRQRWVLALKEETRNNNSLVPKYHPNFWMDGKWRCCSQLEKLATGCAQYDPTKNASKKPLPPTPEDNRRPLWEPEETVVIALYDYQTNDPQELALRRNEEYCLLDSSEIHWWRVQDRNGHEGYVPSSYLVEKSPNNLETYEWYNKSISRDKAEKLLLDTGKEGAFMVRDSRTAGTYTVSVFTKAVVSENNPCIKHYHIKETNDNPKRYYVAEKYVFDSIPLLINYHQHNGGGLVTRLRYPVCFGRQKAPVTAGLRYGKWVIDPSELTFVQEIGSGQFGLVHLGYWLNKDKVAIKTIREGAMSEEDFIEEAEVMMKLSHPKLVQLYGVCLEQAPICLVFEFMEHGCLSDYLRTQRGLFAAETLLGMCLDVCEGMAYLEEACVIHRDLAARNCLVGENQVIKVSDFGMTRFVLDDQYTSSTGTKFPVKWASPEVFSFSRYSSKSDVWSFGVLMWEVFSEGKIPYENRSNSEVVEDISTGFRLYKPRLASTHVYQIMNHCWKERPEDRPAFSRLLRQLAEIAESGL
The test is described as follows: Inhibition of ITK (unknown origin) assessed as residual activity at 1000 nM by KINOMEscan analysis relative to control.

Test [5] concerns the target Tyrosine-protein kinase JAK2 (Homo sapiens) (UniProt O60674). The test is described as follows: Inhibition of JAK2 JH1 catalytic domain (unknown origin) assessed as residual activity at 1000 nM by KINOMEscan analysis relative to control.
Test [6] deals with Serine/threonine-protein kinase MARK1 (Homo sapiens) (UniProt Q9P0L2). Description: Inhibition of MARK1 (unknown origin) assessed as residual activity at 1000 nM by KINOMEscan analysis relative to control.
Test [7] addresses T3, Dual specificity mitogen-activated protein kinase kinase 3 (Homo sapiens) (UniProt P46734).
T3 sequence (whole entry): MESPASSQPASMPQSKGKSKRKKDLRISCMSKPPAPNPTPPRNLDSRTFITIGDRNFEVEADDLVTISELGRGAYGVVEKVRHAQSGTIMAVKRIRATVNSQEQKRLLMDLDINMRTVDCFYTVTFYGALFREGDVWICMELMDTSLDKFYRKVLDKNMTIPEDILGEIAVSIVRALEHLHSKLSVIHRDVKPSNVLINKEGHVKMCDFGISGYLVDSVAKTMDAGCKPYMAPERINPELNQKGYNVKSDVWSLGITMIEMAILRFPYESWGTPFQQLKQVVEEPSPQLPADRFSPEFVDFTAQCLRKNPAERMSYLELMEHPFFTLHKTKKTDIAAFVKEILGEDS
The test is described as follows: Inhibition of MEK3 (unknown origin) assessed as residual activity at 1000 nM by KINOMEscan analysis relative to control.

In test [8] the test system is Phosphatidylinositol 4,5-bisphosphate 3-kinase catalytic subunit alpha isoform (Homo sapiens), P42336 [H1047L]. Description: Inhibition of PIK3CA H1047L mutant (unknown origin) assessed as residual activity at 1000 nM by KINOMEscan analysis relative to control.
The target in test [9] is Phosphatidylinositol 4,5-bisphosphate 3-kinase catalytic subunit beta isoform (Homo sapiens) (UniProt P42338). Description: Inhibition of PIK3CB (unknown origin) assessed as residual activity at 1000 nM by KINOMEscan analysis relative to control.
In test [10] the test system is Proto-oncogene tyrosine-protein kinase receptor Ret (Homo sapiens), P07949 [M918T]. Description: Inhibition of RET M918T mutant (unknown origin) assessed as residual activity at 1000 nM by KINOMEscan analysis relative to control.
Sequence of Proto-oncogene tyrosine-protein kinase receptor Ret (Homo sapiens), P07949 [M918T] (P07949 whole entry M918T): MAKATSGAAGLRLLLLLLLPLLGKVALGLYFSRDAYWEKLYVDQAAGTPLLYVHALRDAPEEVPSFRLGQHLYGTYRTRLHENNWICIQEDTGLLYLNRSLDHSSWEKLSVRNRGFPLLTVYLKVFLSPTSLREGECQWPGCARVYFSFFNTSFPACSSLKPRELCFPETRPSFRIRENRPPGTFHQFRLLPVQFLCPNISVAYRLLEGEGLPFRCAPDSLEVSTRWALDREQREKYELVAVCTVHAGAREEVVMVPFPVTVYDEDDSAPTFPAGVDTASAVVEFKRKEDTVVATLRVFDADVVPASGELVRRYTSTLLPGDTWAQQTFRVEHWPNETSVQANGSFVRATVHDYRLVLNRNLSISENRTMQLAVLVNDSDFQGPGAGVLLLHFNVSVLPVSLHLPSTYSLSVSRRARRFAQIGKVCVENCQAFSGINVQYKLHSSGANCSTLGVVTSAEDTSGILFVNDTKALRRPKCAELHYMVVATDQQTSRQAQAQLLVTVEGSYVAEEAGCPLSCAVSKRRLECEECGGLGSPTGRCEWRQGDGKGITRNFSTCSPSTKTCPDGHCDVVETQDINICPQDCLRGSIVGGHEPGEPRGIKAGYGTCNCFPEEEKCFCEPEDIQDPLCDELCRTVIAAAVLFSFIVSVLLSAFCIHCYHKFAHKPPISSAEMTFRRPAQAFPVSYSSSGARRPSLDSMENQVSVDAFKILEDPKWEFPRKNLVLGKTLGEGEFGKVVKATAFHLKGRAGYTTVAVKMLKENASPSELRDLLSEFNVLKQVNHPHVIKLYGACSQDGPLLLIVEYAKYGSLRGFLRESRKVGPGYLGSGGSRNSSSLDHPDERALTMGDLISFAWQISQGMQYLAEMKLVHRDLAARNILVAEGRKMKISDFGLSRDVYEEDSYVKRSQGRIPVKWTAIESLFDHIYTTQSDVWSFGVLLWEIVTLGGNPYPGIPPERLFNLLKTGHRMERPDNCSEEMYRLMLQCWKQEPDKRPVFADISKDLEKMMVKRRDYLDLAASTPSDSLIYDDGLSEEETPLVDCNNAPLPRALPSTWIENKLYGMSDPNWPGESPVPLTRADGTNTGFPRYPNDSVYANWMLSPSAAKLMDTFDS
The target in test [11] is STE20/SPS1-related proline-alanine-rich protein kinase (Homo sapiens) (UniProt Q9UEW8). Description: Inhibition of STK39 (unknown origin) assessed as residual activity at 1000 nM by KINOMEscan analysis relative to control.
Test [12] concerns the target Non-receptor tyrosine-protein kinase TYK2 (Homo sapiens) (UniProt P29597). Description: Inhibition of TYK2 JH2 pseudokinase domain (unknown origin) assessed as residual activity at 1000 nM by KINOMEscan analysis relative to control.
Test [13] has as its target Serine/threonine-protein kinase PAK 1 (Homo sapiens) (UniProt Q13153). Description: Inhibition of PAK1 (unknown origin) assessed as residual activity at 1000 nM by KINOMEscan analysis relative to control.
For test [14], the target named is Activin receptor type-1 (Homo sapiens) (UniProt Q04771). Description: Inhibition of ACVR1 (unknown origin) assessed as residual activity at 1000 nM by KINOMEscan analysis relative to control.

Sequence of ALK tyrosine kinase receptor (Homo sapiens) (Q9UM73 19-1620 limits assumed): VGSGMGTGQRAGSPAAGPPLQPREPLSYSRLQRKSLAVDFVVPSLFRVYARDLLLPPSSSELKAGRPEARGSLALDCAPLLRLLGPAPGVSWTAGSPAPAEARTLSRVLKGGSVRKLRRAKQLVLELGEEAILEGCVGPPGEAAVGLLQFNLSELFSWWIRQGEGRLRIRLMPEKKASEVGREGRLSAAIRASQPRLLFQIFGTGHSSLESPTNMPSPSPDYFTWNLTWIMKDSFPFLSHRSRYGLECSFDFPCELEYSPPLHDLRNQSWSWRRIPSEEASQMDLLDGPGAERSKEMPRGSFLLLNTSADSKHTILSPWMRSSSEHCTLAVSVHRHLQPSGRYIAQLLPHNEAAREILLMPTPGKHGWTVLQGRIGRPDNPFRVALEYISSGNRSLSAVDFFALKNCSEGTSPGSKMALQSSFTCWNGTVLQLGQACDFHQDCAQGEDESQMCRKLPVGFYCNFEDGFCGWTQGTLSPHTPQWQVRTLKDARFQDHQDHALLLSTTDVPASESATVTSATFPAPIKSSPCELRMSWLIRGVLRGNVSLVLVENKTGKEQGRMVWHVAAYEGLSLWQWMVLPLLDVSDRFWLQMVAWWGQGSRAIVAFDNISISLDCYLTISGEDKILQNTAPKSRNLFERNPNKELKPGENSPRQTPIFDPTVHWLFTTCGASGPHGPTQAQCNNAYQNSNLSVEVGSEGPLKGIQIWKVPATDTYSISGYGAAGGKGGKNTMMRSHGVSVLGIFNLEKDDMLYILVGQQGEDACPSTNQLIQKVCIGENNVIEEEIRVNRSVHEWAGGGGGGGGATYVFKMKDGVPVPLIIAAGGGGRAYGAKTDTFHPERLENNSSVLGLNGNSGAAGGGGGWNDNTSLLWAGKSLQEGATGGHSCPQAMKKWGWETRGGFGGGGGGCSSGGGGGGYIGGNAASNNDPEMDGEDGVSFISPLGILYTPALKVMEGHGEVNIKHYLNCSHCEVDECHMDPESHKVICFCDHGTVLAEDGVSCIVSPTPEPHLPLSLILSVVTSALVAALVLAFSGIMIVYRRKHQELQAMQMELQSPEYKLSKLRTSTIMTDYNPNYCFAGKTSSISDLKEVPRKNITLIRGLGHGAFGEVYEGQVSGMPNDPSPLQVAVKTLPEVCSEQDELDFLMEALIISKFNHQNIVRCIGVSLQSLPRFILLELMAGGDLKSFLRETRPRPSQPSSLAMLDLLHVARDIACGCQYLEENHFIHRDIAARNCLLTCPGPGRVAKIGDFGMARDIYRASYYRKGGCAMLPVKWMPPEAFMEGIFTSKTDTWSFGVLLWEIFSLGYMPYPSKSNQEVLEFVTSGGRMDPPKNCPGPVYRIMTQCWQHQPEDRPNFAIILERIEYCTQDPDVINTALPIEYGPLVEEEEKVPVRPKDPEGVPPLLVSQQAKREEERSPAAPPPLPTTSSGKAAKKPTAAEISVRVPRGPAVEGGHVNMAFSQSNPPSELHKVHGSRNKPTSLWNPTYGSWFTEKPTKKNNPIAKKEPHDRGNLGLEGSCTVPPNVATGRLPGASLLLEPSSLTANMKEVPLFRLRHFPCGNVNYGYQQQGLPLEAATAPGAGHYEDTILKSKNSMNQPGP
Sequence of Tyrosine-protein kinase JAK2 (Homo sapiens) (O60674 whole entry, the tested form may be a part): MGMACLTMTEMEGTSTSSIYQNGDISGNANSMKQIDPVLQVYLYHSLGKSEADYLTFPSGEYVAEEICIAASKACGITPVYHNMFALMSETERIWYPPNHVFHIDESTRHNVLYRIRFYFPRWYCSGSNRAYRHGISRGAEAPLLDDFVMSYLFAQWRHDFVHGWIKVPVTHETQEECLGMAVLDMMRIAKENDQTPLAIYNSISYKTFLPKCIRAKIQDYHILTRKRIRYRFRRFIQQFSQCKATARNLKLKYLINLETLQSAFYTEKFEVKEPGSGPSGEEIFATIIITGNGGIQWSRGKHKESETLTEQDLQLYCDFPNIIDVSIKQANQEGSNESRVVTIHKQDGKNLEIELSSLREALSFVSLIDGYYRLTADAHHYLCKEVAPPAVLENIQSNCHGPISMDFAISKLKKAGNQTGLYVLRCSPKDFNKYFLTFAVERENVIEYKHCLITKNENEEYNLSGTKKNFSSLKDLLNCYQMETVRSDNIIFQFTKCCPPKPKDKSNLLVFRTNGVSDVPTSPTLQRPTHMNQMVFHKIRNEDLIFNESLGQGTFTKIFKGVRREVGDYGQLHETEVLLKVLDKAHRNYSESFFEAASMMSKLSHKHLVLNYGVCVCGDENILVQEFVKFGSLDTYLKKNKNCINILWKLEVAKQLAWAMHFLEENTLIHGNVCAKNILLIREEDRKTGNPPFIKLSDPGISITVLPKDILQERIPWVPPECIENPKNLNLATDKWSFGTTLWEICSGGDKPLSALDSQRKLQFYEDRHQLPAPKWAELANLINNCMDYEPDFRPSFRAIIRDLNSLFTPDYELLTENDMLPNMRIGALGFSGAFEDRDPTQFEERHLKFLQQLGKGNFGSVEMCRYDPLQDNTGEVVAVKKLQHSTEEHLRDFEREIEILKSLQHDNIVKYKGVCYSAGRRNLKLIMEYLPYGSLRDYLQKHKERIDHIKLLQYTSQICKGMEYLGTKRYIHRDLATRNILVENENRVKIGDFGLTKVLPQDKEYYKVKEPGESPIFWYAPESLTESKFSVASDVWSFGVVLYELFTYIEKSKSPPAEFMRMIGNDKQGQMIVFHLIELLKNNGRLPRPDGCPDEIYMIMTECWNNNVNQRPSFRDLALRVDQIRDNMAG
Sequence of Serine/threonine-protein kinase PAK 1 (Homo sapiens) (Q13153 whole entry, looked up): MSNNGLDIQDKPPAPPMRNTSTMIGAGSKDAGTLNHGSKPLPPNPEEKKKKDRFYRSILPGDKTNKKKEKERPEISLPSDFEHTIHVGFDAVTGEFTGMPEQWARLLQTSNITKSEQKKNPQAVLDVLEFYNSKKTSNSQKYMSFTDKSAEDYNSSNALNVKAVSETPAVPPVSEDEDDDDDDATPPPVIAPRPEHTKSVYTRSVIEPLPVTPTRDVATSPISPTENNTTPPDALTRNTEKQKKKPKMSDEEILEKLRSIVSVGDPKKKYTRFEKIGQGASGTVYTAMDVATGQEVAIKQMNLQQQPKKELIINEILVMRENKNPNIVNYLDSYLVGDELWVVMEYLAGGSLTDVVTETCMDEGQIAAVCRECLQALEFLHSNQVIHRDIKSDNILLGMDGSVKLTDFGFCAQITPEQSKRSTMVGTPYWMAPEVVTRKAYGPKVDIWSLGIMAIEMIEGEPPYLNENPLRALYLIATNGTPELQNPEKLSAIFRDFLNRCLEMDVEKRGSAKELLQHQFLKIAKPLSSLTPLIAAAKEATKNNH

With `COc1cc2nc(C)nc(N[C@H](C)c3cccc(-c4cn[nH]c4)c3)c2cc1OC`, the Activity in test [1] was found to be 100%; in test [2], 97%; in test [3], 94%; in [4], 67%; in test [5], 74%; in test [6], 100%. Further, the Activity in test [7] came out at 54%; in test [8] it was 96%; in [9] it was 89%; in [10], 60%; in [11], 76%; in [12], 80%. The Activity is 62% in [13] and 100% in test [14].
As for `COc1cc2ncnc(N[C@H](C)c3cccc4ccccc34)c2cc1OC`, the Activity in test [1] turned out to be 85%; in [2], 100%; in [3], 76%; in test [4], 100%; in test [5], 89%; in test [6] it was 73%. The Activity turned out to be 100% in test [7]; 92% in test [8]; 13% in test [9]; 100% in test [10]; 100% in test [11]; 100% in [12]. Further, the Activity in test [13] was 90%; in test [14], 100%.
